This is an account of results in patent publication US20240368113A1, “AMIDE COMPOUND AND USE THEREOF” (Chengdu Fendi Pharmaceutical Co. Ltd., priority 2021, published 2024).

The structures appear in SMILES notation. Bounds are passed on as bounds.

In the test the test system is MV-4-11 cells. In words: Inhibition of tumor cell proliferation (CellTiter-Glo). Type of test: cell-based. Particulars: Homo sapiens, MV4-11; MV-4-11 cells, 72 h, CellTiter-Glo; read-out: IC50 of inhibitory activity of tumor cell proliferation. On the procedure:
MV-4-11 cells were diluted with medium (RPM1640+10% FBS+1% PS) and plated at 4000 cells/well in a white-walled clear-bottom 96-well plate. MV-4-11 cells were plated and incubated in a 5% CO2, 37° C. incubator for 2 hours. Cells were treated with the indicated concentration of compound or DMSO (control), and placed in a 5% CO2, 37° C. incubator for 72 h after dosing. After the end of the culture, equilibrate at room temperature for 30 min, add 100 μl of CellTiter-Glo® Reagent to each well, and shake the microplate shaker for 2 min. After 10 min of incubation at room temperature, the luminescence was measured by a microplate reader, and the cell-free wells were used as the background wells. CC-90009 (celegen patent phase I) was used as a control, and its structural formula was as follows: 0
In the case of `O=C(C#Cc1ccc(CC(F)F)cc1)NCc1ccc2c(c1)CN(C1CCC(=O)NC1=O)C2=O` (stereo not drawn) [Compound 2], the IC50 was less than 1 nM.
Under `O=C(C#Cc1ccc(F)cc1)NCc1ccc2c(c1)CN(C1CCC(=O)NC1=O)C2=O` (stereo not drawn) [Compound 3] stands less than 1 nM.
Under `O=C(C#Cc1ccc(Cl)cc1F)NCc1ccc2c(c1)CN(C1CCC(=O)NC1=O)C2=O` (stereo not drawn) [Compound 4] stands less than 1 nM; under `O=C(C#Cc1cccs1)NCc1ccc2c(c1)CN(C1CCC(=O)NC1=O)C2=O` (stereo not drawn) [Compound 6], less than 1 nM; under `O=C(C#Cc1ccc(Cl)cc1)NCc1ccc2c(c1)CN(C1CCC(=O)NC1=O)C2=O` (stereo not drawn) [Compound 7], less than 1 nM.
Take `O=C(C#Cc1ccccc1Cl)NCc1ccc2c(c1)CN(C1CCC(=O)NC1=O)C2=O` (stereo not drawn) [Compound 8]: the IC50 is less than 1 nM.
Consider `O=C(C#Cc1c(F)cccc1F)NCc1ccc2c(c1)CN(C1CCC(=O)NC1=O)C2=O` (stereo not drawn) [Compound 9], for which the IC50 was less than 1 nM.
In the case of `O=C(C#Cc1ccc(F)cc1F)NCc1ccc2c(c1)CN(C1CCC(=O)NC1=O)C2=O` (stereo not drawn) [Compound 10], the IC50 was less than 1 nM.
Under `O=C(C#Cc1ccccc1)NCc1ccc2c(c1)CN(C1CCC(=O)NC1=O)C2=O` (stereo not drawn) [Compound 11] stands less than 1 nM; under `Cc1cc(F)c(C#CC(=O)NCc2ccc3c(c2)CN(C2CCC(=O)NC2=O)C3=O)c(F)c1` (stereo not drawn) [Compound 13], less than 1 nM; under `O=C1CCC(N2Cc3cc(CNC(=O)/C(F)=C/c4cccc(F)c4)ccc3C2=O)C(=O)N1` (stereo not drawn) [Compound 14], more than 100 nM.
Under `O=C(/C=C/c1ccccc1)NCc1ccc2c(c1)CN(C1CCC(=O)NC1=O)C2=O` (stereo not drawn) [Compound 15] stands 1 to 10 nM; under `O=C(C#Cc1cccnc1)NCc1ccc2c(c1)CN(C1CCC(=O)NC1=O)C2=O` (stereo not drawn) [Compound 16], 10 to 100 nM.
For `O=C(C#Cc1cccc(Br)c1)NCc1ccc2c(c1)CN(C1CCC(=O)NC1=O)C2=O` (stereo not drawn) [Compound 18], the IC50 was less than 1 nM.
In the case of `O=C(C#Cc1cccc(O)c1)NCc1ccc2c(c1)CN(C1CCC(=O)NC1=O)C2=O` (stereo not drawn) [Compound 19], the IC50 fell in the range of 1 to 10 nM.
With `C[Si](C)(C)C#CC(=O)NCc1ccc2c(c1)CN(C1CCC(=O)NC1=O)C2=O` (stereo not drawn) [Compound 20], the IC50 is more than 100 nM.
Regarding `CC(C)(C)[Si](C)(C)OCC#CC(=O)NCc1ccc2c(c1)CN(C1CCC(=O)NC1=O)C2=O` (stereo not drawn) [Compound 21], the IC50 was less than 1 nM.
As to `O=C(C#CCO)NCc1ccc2c(c1)CN(C1CCC(=O)NC1=O)C2=O` (stereo not drawn) [Compound 22], the IC50 is more than 100 nM.
Consider `O=C(C#Cc1ccncc1)NCc1ccc2c(c1)CN(C1CCC(=O)NC1=O)C2=O` (stereo not drawn) [Compound 23], for which the IC50 is more than 100 nM.
Under `O=C(C#Cc1ccc2c(c1)OCO2)NCc1ccc2c(c1)CN(C1CCC(=O)NC1=O)C2=O` (stereo not drawn) [Compound 24] stands less than 1 nM.
Take `CC(C)(C)OC(=O)c1ccc(C#CC(=O)NCc2ccc3c(c2)CN(C2CCC(=O)NC2=O)C3=O)cc1` (stereo not drawn) [Compound 25]: the IC50 is less than 1 nM.
As for `O=C(C#Cc1ccc(C(=O)O)cc1)NCc1ccc2c(c1)CN(C1CCC(=O)NC1=O)C2=O` (stereo not drawn) [Compound 26], the IC50 was more than 100 nM.
In the case of `O=C(C#Cc1ccc(Cl)cn1)NCc1ccc2c(c1)CN(C1CCC(=O)NC1=O)C2=O` (stereo not drawn) [Compound 27], the IC50 was in the range of 1 to 10 nM.
`Cc1ccc(C#CC(=O)NCc2ccc3c(c2)CN(C2CCC(=O)NC2=O)C3=O)nc1` (stereo not drawn) [Compound 28]: the IC50 is 1 to 10 nM.
The same measure for `CCOC(=O)c1ccc(C#CC(=O)NCc2ccc3c(c2)CN(C2CCC(=O)NC2=O)C3=O)nc1` (stereo not drawn) [Compound 29]: more than 100 nM; for `COc1ccc(C#CC(=O)NCc2ccc3c(c2)CN(C2CCC(=O)NC2=O)C3=O)nc1` (stereo not drawn) [Compound 30]: 1 to 10 nM.
Under `Cc1ccc(C#CC(=O)NCc2ccc3c(c2)CN(C2CCC(=O)NC2=O)C3=O)cn1` (stereo not drawn) [Compound 31] stands 10 to 100 nM; under `CC(=O)Oc1ccc(C#CC(=O)NCc2ccc3c(c2)CN(C2CCC(=O)NC2=O)C3=O)cc1` (stereo not drawn) [Compound 32], 1 to 10 nM.
Under `Cn1cnc(C#CC(=O)NCc2ccc3c(c2)CN(C2CCC(=O)NC2=O)C3=O)c1` (stereo not drawn) [Compound 33] stands more than 100 nM.
In the case of `O=C(C#Cc1ccc(C(F)(F)F)cn1)NCc1ccc2c(c1)CN(C1CCC(=O)NC1=O)C2=O` (stereo not drawn) [Compound 34], the IC50 lay in the range of 10 to 100 nM.
With `Cn1ccc(C#CC(=O)NCc2ccc3c(c2)CN(C2CCC(=O)NC2=O)C3=O)n1` (stereo not drawn) [Compound 35], the IC50 fell in the range of 10 to 100 nM.
The same measure for `Cc1ccc(C#CC(=O)NCc2ccc3c(c2)CN(C2CCC(=O)NC2=O)C3=O)s1` (stereo not drawn) [Compound 36]: less than 1 nM; for `O=C(C#Cc1cnccn1)NCc1ccc2c(c1)CN(C1CCC(=O)NC1=O)C2=O` (stereo not drawn) [Compound 37]: more than 100 nM.
Under `O=C(C#Cc1ccc(F)nc1)NCc1ccc2c(c1)CN(C1CCC(=O)NC1=O)C2=O` (stereo not drawn) [Compound 38] stands 1 to 10 nM; under `O=C(C#Cc1cnc(Cl)cc1Cl)NCc1ccc2c(c1)CN(C1CCC(=O)NC1=O)C2=O` (stereo not drawn) [Compound 39], 1 to 10 nM.
The same measure for `O=C(C#Cc1cccc(Cl)n1)NCc1ccc2c(c1)CN(C1CCC(=O)NC1=O)C2=O` (stereo not drawn) [Compound 40]: 1 to 10 nM; for `O=C(C#Cc1ccc(F)nc1F)NCc1ccc2c(c1)CN(C1CCC(=O)NC1=O)C2=O` (stereo not drawn) [Compound 41]: 1 to 10 nM.
In the case of `N#Cc1ccc(C#CC(=O)NCc2ccc3c(c2)CN(C2CCC(=O)NC2=O)C3=O)cn1` (stereo not drawn) [Compound 42], the IC50 is more than 100 nM.
Under `N#Cc1ncccc1C#CC(=O)NCc1ccc2c(c1)CN(C1CCC(=O)NC1=O)C2=O` (stereo not drawn) [Compound 43] stands more than 100 nM.
Under `Cn1nccc1C#CC(=O)NCc1ccc2c(c1)CN(C1CCC(=O)NC1=O)C2=O` (stereo not drawn) [Compound 44] stands more than 100 nM; under `O=C(C#Cc1ccc2nccn2c1)NCc1ccc2c(c1)CN(C1CCC(=O)NC1=O)C2=O` (stereo not drawn) [Compound 45], more than 100 nM; under `COc1cccc(C#CC(=O)NCc2ccc3c(c2)CN(C2CCC(=O)NC2=O)C3=O)c1` (stereo not drawn) [Compound 46], less than 1 nM.
Take `O=C(C#Cc1ccc([N+](=O)[O-])cc1F)NCc1ccc2c(c1)CN(C1CCC(=O)NC1=O)C2=O` (stereo not drawn) [Compound 47]: the IC50 is more than 100 nM.
The same measure for `Nc1ccc(C#CC(=O)NCc2ccc3c(c2)CN(C2CCC(=O)NC2=O)C3=O)c(F)c1` (stereo not drawn) [Compound 48]: 1 to 10 nM; for `O=C(C#Cc1ccc(F)cc1[N+](=O)[O-])NCc1ccc2c(c1)CN(C1CCC(=O)NC1=O)C2=O` (stereo not drawn) [Compound 49]: 1 to 10 nM.
The same measure for `Nc1cc(F)ccc1C#CC(=O)NCc1ccc2c(c1)CN(C1CCC(=O)NC1=O)C2=O` (stereo not drawn) [Compound 50]: 1 to 10 nM; for `Cc1ccc(C#CC(=O)NCc2ccc3c(c2)CN(C2CCC(=O)NC2=O)C3=O)cc1[N+](=O)[O-]` (stereo not drawn) [Compound 51]: less than 1 nM.
For the molecule `Cc1ccc(C#CC(=O)NCc2ccc3c(c2)CN(C2CCC(=O)NC2=O)C3=O)cc1N` (stereo not drawn) [Compound 52], the IC50 was less than 1 nM.
Regarding `O=C(C#Cc1ccc(F)c([N+](=O)[O-])c1)NCc1ccc2c(c1)CN(C1CCC(=O)NC1=O)C2=O` (stereo not drawn) [Compound 53], the IC50 is 10 to 100 nM.
The same measure for `Nc1cc(C#CC(=O)NCc2ccc3c(c2)CN(C2CCC(=O)NC2=O)C3=O)ccc1F` (stereo not drawn) [Compound 54]: less than 1 nM; for `O=C(C#Cc1ccc(-c2ccc([N+](=O)[O-])cc2)cc1)NCc1ccc2c(c1)CN(C1CCC(=O)NC1=O)C2=O` (stereo not drawn) [Compound 55]: less than 1 nM; for `Nc1ccc(-c2ccc(C#CC(=O)NCc3ccc4c(c3)CN(C3CCC(=O)NC3=O)C4=O)cc2)cc1` (stereo not drawn) [Compound 56]: less than 1 nM.
Under `O=C(C#Cc1ccc(O)cc1)NCc1ccc2c(c1)CN(C1CCC(=O)NC1=O)C2=O` (stereo not drawn) [Compound 57] stands 10 to 100 nM; under `O=C(C#Cc1ccccc1O)NCc1ccc2c(c1)CN(C1CCC(=O)NC1=O)C2=O` (stereo not drawn) [Compound 58], 1 to 10 nM.
Under `O=C(C#Cc1ccc(Cl)nc1)NCc1ccc2c(c1)CN(C1CCC(=O)NC1=O)C2=O` (stereo not drawn) [Compound 59] stands 10 to 100 nM; under `O=C(C#Cc1ccc(C(F)(F)F)nc1)NCc1ccc2c(c1)CN(C1CCC(=O)NC1=O)C2=O` (stereo not drawn) [Compound 60], 10 to 100 nM.
As to `O=C(C#CC1CC1)NCc1ccc2c(c1)CN(C1CCC(=O)NC1=O)C2=O` (stereo not drawn) [Compound 61], the IC50 was more than 100 nM.
The same measure for `O=C(C#CC1CCCCC1)NCc1ccc2c(c1)CN(C1CCC(=O)NC1=O)C2=O` (stereo not drawn) [Compound 62]: less than 1 nM; for `CC(C)(C)OC(=O)N1CCCCC1C#CC(=O)NCc1ccc2c(c1)CN(C1CCC(=O)NC1=O)C2=O` (stereo not drawn) [Compound 63]: less than 1 nM.
The same measure for `O=C(C#CC1CCCCN1)NCc1ccc2c(c1)CN(C1CCC(=O)NC1=O)C2=O` (stereo not drawn) [Compound 64]: more than 100 nM.
Regarding `O=C(C#Cc1c(O)cccc1Cl)NCc1ccc2c(c1)CN(C1CCC(=O)NC1=O)C2=O` (stereo not drawn) [Compound 65], the IC50 lay in the range of 1 to 10 nM.
Under `O=C(C#Cc1c(Cl)ccnc1Cl)NCc1ccc2c(c1)CN(C1CCC(=O)NC1=O)C2=O` (stereo not drawn) [Compound 66] stands 1 to 10 nM.
Consider `Cc1ccnc(Cl)c1C#CC(=O)NCc1ccc2c(c1)CN(C1CCC(=O)NC1=O)C2=O` (stereo not drawn) [Compound 67], for which the IC50 lay within 1 to 10 nM.
`O=C(C#Cc1c(F)ccnc1F)NCc1ccc2c(c1)CN(C1CCC(=O)NC1=O)C2=O` (stereo not drawn) [Compound 68]: the IC50 lay within 10 to 100 nM.
As for `CC(C)(C)OC(=O)c1ccccc1C#CC(=O)NCc1ccc2c(c1)CN(C1CCC(=O)NC1=O)C2=O` (stereo not drawn) [Compound 69], the IC50 was less than 1 nM.
The same measure for `CC(C)(C)OC(=O)c1cccc(C#CC(=O)NCc2ccc3c(c2)CN(C2CCC(=O)NC2=O)C3=O)c1` (stereo not drawn) [Compound 70]: less than 1 nM.
